Data from ChEMBL document CHEMBL3244013, “Central nervous system activity of a novel class of annelated 1,4-benzodiazepines, aminomethylene-2,4-dihydro-1H-imidazo[1,2-a][1,4]benzodiazepin-1-ones” (J Med Chem, 1977).

How the values were obtained:
[1] = system: Mus musculus; test: Potentiation of chlorprothixene-induced sedative effect in po dosed CD-1 mouse assessed as loss of righting reflex; assay type: functional; conditions: CD-1, po
[2] = system: Mus musculus; test: Anticonvulsant activity in po dosed CD-1 mouse assessed as protection against pentylenetetrazole-induced convulsion; assay type: functional; conditions: CD-1, po
[3] = system: Mus musculus; test: Potentiation of hexobarbital-induced sedative effect in po dosed CD-1 mouse assessed as loss of righting reflex after 30 secs; assay type: functional; conditions: CD-1, po
[4] = system: Mus musculus; test: Induction of muscle relaxation in po dosed CD-1 mouse after 30 mins by rotary drum test; assay type: functional; conditions: CD-1, po, 0.5 h
[5] = system: Mus musculus; test: Anticonvulsant activity in po dosed CD-1 mouse assessed as protection against strychnine-induced convulsion after 30 mins; assay type: functional; conditions: CD-1, po, 0.5 h
[6] = system: Mus musculus; test: Anticonvulsant activity in po dosed CD-1 mouse assessed as protection against maximal electroshock-induced convulsion; assay type: functional; conditions: CD-1, po
[7] = system: Mus musculus; test: Acute toxicity in po dosed CD-1 mouse assessed as mortality after 24 hrs; assay type: organism-based; conditions: in vivo
[8] = system: Mus musculus; test: Antianxiety activity in po dosed CD-1 mouse assessed as inhibition of foot shock-induced aggression after 30 mins relative to control; assay type: functional; conditions: CD-1, po, 0.5 h

## CCN1CCN(/C=C2\N=C3CN=C(c4ccccc4)c4cc(Cl)ccc4N3C2=O)CC1
[1]
  ED50: 5 mg/kg
[2]
  ED50: 0.48 mg/kg
[3]
  ED50: 1.1 mg/kg
[4]
  ED50: 1.6 mg/kg
[5]
  ED50: 5.5 mg/kg
[6]
  ED50: 2.2 mg/kg
[7]
  ED50: > 1000 mg/kg
[8]
  ED50: 0.94 mg/kg

## CCCCN/C=C1\N=C2CN=C(c3ccccc3)c3cc(Cl)ccc3N2C1=O
[1]
  ED50: 1.8 mg/kg
[2]
  ED50: 1.15 mg/kg
[3]
  ED50: 0.66 mg/kg
[4]
  ED50: 24 mg/kg
[5]
  ED50: 17 mg/kg
[6]
  ED50: 12.5 mg/kg
[7]
  ED50: > 1000 mg/kg
[8]
  ED50: 3.35 mg/kg

## CCCCN1CCN(/C=C2\N=C3CN=C(c4ccccc4)c4cc(Cl)ccc4N3C2=O)CC1
[1]
  ED50: > 50 mg/kg
[2]
  ED50: 2 mg/kg
[3]
  ED50: 44 mg/kg
[4]
  ED50: 9 mg/kg
[5]
  ED50: 24 mg/kg
[6]
  ED50: 20.5 mg/kg
[7]
  ED50: > 1000 mg/kg
[8]
  ED50: 1.5 mg/kg

## CN1CCN(/C=C2\N=C3CN=C(c4ccccc4F)c4cc(Cl)ccc4N3C2=O)CC1
[1]
  ED50: 1.35 mg/kg
[2]
  ED50: 0.115 mg/kg
[3]
  ED50: 0.21 mg/kg
[4]
  ED50: 2.6 mg/kg
[5]
  ED50: 1.25 mg/kg
[6]
  ED50: 0.27 mg/kg
[7]
  ED50: > 1000 mg/kg
[8]
  ED50: 0.34 mg/kg
